Results from patent US20050287085A1, “Composition for improving the physico-chemical properties of apatite-based materials, uses thereof and method using same” (DENTSPLY INTERNATIONAL INC., priority 2002, published 2005).

Assay: Substitution in treated hydroxyapatite, mass spectrometry
From the text: The analysis of the samples of treated hydroxyapatite is continued by mass spectrometry. The percentage of calcium substituted by titanium and the percentage of hydroxyl groups substituted by fluorine are compared with those obtained after bringing the hydroxyapatite into contact with the sodium fluoride solution.

## [F-].[Na+] [NaF, Sodium fluoride]
  Substitution of Ca by Ti: 0.3%
  Substitution of OH by F: 52.0%
